The text below walks through data of patent publication US6060608A, “Analogs of CC-1065 and the duocarmycins” (The Scripps Research Institute, priority 1999, dated 2000).

Each structure is given as a SMILES string.

Data set [1] deals with w794 duplex DNA. The data set is described as follows: DNA alkylation selectivity and efficiency within w794 DNA, thermally-induced strand cleavage and PAGE. Format: biochemical, SV40. The gist of the method:
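5′-32P end-labeled w794 duplex DNA in TE buffer (pH 7.2–7.5) incubated with agent in DMSO across concentrations, 4–37 °C for 24–76 h depending on agent. Unbound agent removed by EtOH precipitation; thermolysis 100 °C, 30 min cleaves alkylation sites, mapped by denaturing 8% PAGE beside Sanger standards and autoradiography.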

Data set [2] in a line: Solvolysis regioselectivity (acid-catalyzed nucleophilic addition to the cyclopropane). The data set is classed as physicochemical. As to conditions: C9 addition versus ring expansion. From the text:
Solvolysis: Reactivity. Two fundamental characteristics of the alkylation subunits have proven important in the studies to date. The first is the stereoelectronically-controlled acid-catalyzed ring-opening of the cyclopropane which dictates preferential addition of a nucleophile to the least substituted cyclopropane carbon. With the CBI series of modified alkylation subunits where this stereoelectronic alignment of the C8b-C9 bond is nearly optimized, exclusive (≥20:1) addition to the C9 center with cleavage of the C8b-C9 bond is observed. […] Thus, the impact of the difluorocyclopropane substitution on the reactivity and reaction regioselectivity of CBI was examined.
Solvolysis: Regioselectivity. Treatment of both 217 and 219 with catalytic CF3 SO3 H (0.1 equiv) in CH3 OH (0° C.) rapidly and cleanly provided a single characterizable product 225 (30 min, 90%) or 226 (10 min, 79%), FIG. 33. […] Furthermore, the ^1 H-^13 C HMBC NMR spectrum of 226 established the carbon-carbon connectivity of C1 (δ51.0) with the CF2 carbon (δ50.3, t) and C9b (δ125.0). No connectivity between the key CF2 carbon (δ50.3, t) and […] was detected as required of the ring expansion regioisomer. This was unambiguously established by conducting the solvolysis in THF-H2 O catalyzed by CF3 SO3 H (0.12 equiv) which cleanly provided 227 (18 h, 85%), FIG. 33. […]

Data set [3] concerns L1210. Put plainly: In vitro cytotoxic activity, L1210. As to conditions: N-BOC derivatives.
The mark [4] stands for this setting: natural enantiomers, 37° C., 72 h.

`CC(C)(C)OC(=O)N1CC2CC23C1=CC(=O)c1ccc(C#N)cc13` (stereo not shown) [compound 25, N-(tert-Butyloxycarbonyl)-7-cyano-1,2,9,9a-tetrahydrocyclopropa[c]benz[e]indol-4-one]: the “DNA alkylation sequence selectivity” value in data set [1] is 5'-AA>5'-TA. The “concentration providing detectable DNA alkylation” value in data set [1] (both enantiomers, 37° C., 24-72 h) is recorded as 10^-2 to 10^-3 M. In data set [1] (setting [4]), the “concentration at which DNA alkylation is detectable” value is 10^-3 M and the “concentration at which DNA alkylation is prominent” value was 10^-2 M. Besides, in data set [1] (two enantiomers of 25), the “DNA alkylation less efficient than 34-39” value is 10^4 ×. Moreover, the “solvolysis regioselectivity, addition to the least substituted or C9 cyclopropane carbon” value in data set [2] is listed as “nucleophilic addition to the least substituted carbon of the activated cyclopropane was observed exclusively”. For the same compound, the “relative cytotoxic potency of natural versus unnatural enantiomers” value in data set [3] amounted to 4 ×.
